Source: patent US20260176289A1, “SMALL MOLECULE INHIBITORS OF KRAS PROTEINS” (Merck Sharp & Dohme LLC, priority 2022, published 2026)
Like-named read-outs stand apart in the source and are kept apart here.

Key:
SW620 cells = assay: Cellular phospho-ERK assay, SW620 cells (homozygous KRAS-G12V); assay type: cell-based; settings: Homo sapiens, read-out: SW620 pERK IC50
Protocol: (§1) Procedure for Cellular Phospho-ERK Assay in KRAS Wild Type and Mutant (G12D, G12V) Cell Lines
(§2) MKN-1 cells (JCRB JCRB0252) containing amplified wild-type KRAS, were cultured in growth medium that contains RPMI 1640-GlutaMAX™-I (ThermoFisher Scientific 61870) containing 10% heat inactivated fetal bovine serum (ThermoFisher Scientific 10091148), 1 mM sodium pyruvate and 10 mM HEPES. PANC08.13 cells (ATCC® CRL-2551™), containing homozygous KRAS-G12D activating mutation, were cultured in growth medium made of RPMI1640-GlutaMAX™-I (ThermoFisher Scientific 61870) containing 15% heat inactivated fetal bovine serum (ThermoFisher Scientific 10091148)). AsPC-1 cells (ATCC® CRL-1682™), containing homozygous KRAS-G12D activating mutation, were cultured in T150 flask in growth medium (RPMI medium 1640-GlutaMAX™-I (ThermoFisher Scientific 61870) containing 10% fetal bovine serum (ThermoFisher Scientific 10091148)). SW620 cells (ATCC® […]), containing homozygous KRAS-G12V activating mutation, were cultured in growth medium that contains RPMI 1640-GlutaMAX™-I (ThermoFisher Scientific 61870) containing 10% heat inactivated fetal bovine serum (ThermoFisher Scientific 10091148).
(§3) Cells for the assay were harvested in growth medium after TrypLE (ThermoFisher scientific 12604021) digestion and were seeded in a 384-well collagen coated cell culture plate (Corning 356702) at a density of 10,000-15,000 cells/20 μL/well, and incubated at 37° C., 5% CO2 overnight. The compound (with 10 mM stock concentration) dose-response titrations were prepared [30 μM final ERK detection assay concentration and 1:3 dilutions, 10-point dose response] and appropriate amounts (270 nL) of test compounds were dispensed in a 384-well intermediate plate using an Echo 550 liquid handler. 30 μL/well of RPMI medium 1640-GlutaMAX™—I was added to the intermediate plate and the contents of the intermediate plate (10 μL/well) were then transferred to the 384-well collagen coated cell culture plate, which was incubated at 37° C., 5% CO2 for 2 hours. After removal of medium from the collagen coated cell culture plate, cells were lysed in lysis buffer from Alpha SureFire® Ultra™ Multiplex p-ERK and total ERK assay kit (PerkinElmer MPSU-PTERK) containing Halt™ Protease and Phosphatase inhibitor cocktail (ThermoFisher Scientific 78446) at room temperature with constant shaking at 300 rpm for 30 minutes. The cell lysates were then transferred to an OptiPlate-384 plate (PerkinElmer 6005620), and the phosphorylation of ERK (p-ERK) and total ERK levels were detected by Alpha SureFire® Ultra™ Multiplex p-EEK kit and total ERK assay kit (PerkinElmer MPSU-PTERK) following the manufacturer's protocol. Assay plates were read on a En Vision Multimode Plate Reader (PerkinElmer), and the ratio of p-ERK vs. total ERK in each well was used as the final readout. Dose response curves were analyzed using a 4-parameter logistic model to calculate IC50 values using Spotfire software.

KRAS-WT = KRAS-WT (Homo sapiens, UniProt P01116); assay: SOS-catalyzed nucleotide exchange assay (Procedure A, TR-FRET), KRAS-WT; assay type: biochemical; settings: nucleotide exchange, read-out: KRAS WT GNE IC50
Sequence of KRAS-WT (P01116 with tags, fused parts or gaps isoform P01116-2): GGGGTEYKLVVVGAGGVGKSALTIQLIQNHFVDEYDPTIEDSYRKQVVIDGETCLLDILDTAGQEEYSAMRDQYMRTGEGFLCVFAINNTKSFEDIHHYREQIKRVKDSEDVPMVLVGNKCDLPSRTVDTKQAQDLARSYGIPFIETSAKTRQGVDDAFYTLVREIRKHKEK
Outline: (§4)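 Compounds (10-point, 3-fold) were preincubated 60 min at room temperature with a biotinylated RAS/Bodipy-GDP/Tb-streptavidin TR-FRET complex. Exchange was started with human SOS plus 3 mM GTP. RAS/SOS: G12C 3/40 nM, WT 1/40 nM, NRAS 1.25/40 nM (60 min); G12V 1.25/160 nM (90 min). The 520/495 ratio was fit four-parameter.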

AsPC-1 cells = assay: Cellular phospho-ERK assay, AsPC-1 cells (homozygous KRAS-G12D); assay type: cell-based; settings: Homo sapiens, ASPC1, 2 h, read-out: AsPC1 pERK IC50
Outline: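 p-ERK/total ERK ratio, measured by AlphaLISA SureFire Ultra multiplex in lysates, was fitted to a 4-parameter logistic model for IC50. Compound exposure was 2 h at 37° C, 5% CO2, 10-point 1:3 dilutions from 30 μM final, on cells plated the previous night.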

KRAS-G12V = KRAS-G12V (Homo sapiens, UniProt P01116, G12V); assay: SOS-catalyzed nucleotide exchange assay (Procedure A, TR-FRET), KRAS-G12V; assay type: biochemical; settings: nucleotide exchange, read-out: KRAS G12V GNE IC50
Sequence of KRAS-G12V (P01116 with tags, fused parts or gaps isoform P01116-2 G12V): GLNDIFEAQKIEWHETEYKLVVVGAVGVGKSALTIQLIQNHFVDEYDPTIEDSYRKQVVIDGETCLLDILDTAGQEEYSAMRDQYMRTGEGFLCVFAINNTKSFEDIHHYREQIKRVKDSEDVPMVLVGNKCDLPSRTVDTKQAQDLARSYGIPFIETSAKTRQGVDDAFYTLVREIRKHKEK
Outline: as §4

KRAS-G12D = KRAS-G12D (Homo sapiens, UniProt P01116, G12D); assay: SOS-catalyzed nucleotide exchange assay (Procedure A, TR-FRET), KRAS-G12D; assay type: biochemical; settings: nucleotide exchange, read-out: KRAS G12D GNE IC50
Sequence of KRAS-G12D (P01116 with tags, fused parts or gaps isoform P01116-2 G12D): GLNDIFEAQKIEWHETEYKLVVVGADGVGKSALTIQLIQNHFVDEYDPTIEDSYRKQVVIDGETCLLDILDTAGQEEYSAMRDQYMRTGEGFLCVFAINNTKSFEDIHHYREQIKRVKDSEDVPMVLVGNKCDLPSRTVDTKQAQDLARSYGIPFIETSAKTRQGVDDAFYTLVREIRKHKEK
Outline: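 Signal ratio (520/495 nm, excitation 340 nm) reports Bodipy-GDP retention on biotinylated RAS after SOS-catalyzed exchange with 3 mM GTP. SOS was 40 nM, except 160 nM for G12V. Room-temperature exchange lasted 60 min (90 min for G12V), following a 60 min compound preincubation.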

MKN-1 cells = assay: Cellular phospho-ERK assay, MKN-1 cells (amplified wild-type KRAS); assay type: cell-based; settings: Homo sapiens, read-out: MKN1 pERK IC50
Protocol: as §1, §2, §3

[1] = amplified wild-type KRAS, 2 hours
[2] = SW-620, 2 hours compound incubation

SMILES	IC50 (SW620 cells; SW-620, KRAS-G12V, 2 hours)	IC50 (KRAS-WT)	IC50 (AsPC-1 cells; KRAS-G12D, 2 hours)	IC50 (KRAS-G12V)	IC50 (KRAS-G12D)	IC50 (MKN-1 cells; [1])	IC50 (SW620 cells; [2])	IC50 (AsPC-1 cells; 2 hours compound incubation)	IC50 (MKN-1 cells; 2 hours compound incubation)
Cc1c2nc(OC[C@@]34CCCN3C[C@H](F)C4)nc(N3CCOC[C@@](C)(O)C3)c2n2ccnc(-c3c(C4CC4)c(Cl)cc4[nH]ncc34)c12 (single isomer, unassigned) [Ex-302]	48.9 nM	18.6 nM	135 nM	17 nM	8.99 nM	49.5 nM	–	–	–
C#CC1=CCCc2cc3[nH]ncc3c(-c3nccc4c3sc3nc(OC[C@@]56CCCN5C[C@H](F)C6)nc(N5CCOC[C@@](C)(O)C5)c34)c21 [Ex-173, (6S)-4-(8-(5-ethynyl-7,8-dihydro-1H-benzo[f]indazol-4-yl)-2-(((2R,7aS)-2-fluorotetrahydro-1H-pyrrolizin-7a(5H)-yl)methoxy)pyrido[4′,3′:4,5]thieno[2,3-d]pyrimidin-4-yl)-6-methyl-1,4-oxazepan-6-ol]	–	38.2 nM	–	50.1 nM	18.9 nM	–	61.1 nM	161 nM	56.9 nM
CCC1c2c(cc3[nH]ncc3c2-c2nccc3c2sc2nc(OC[C@@]45CCCN4C[C@H](F)C5)nc(N4CCOC[C@@](C)(O)C4)c23)CC1(F)F (single isomer, unassigned) [Ex-108]	20.9 nM	3.09 nM	50 nM	5.41 nM	1.52 nM	28.9 nM	–	–	–
CC(C)(C)c1c(Cl)cc2[nH]ncc2c1-c1nccc2c1sc1nc(OC[C@@]34CCCN3C[C@H](F)C4)nc(N3CCOC[C@@](C)(O)C3)c12 [Ex-156, (6S)-4-(8-(5-(tert-butyl)-6-chloro-1H-indazol-4-yl)-2-(((2R,7aS)-2-fluorotetrahydro-1H-pyrrolizin-7a(5H)-yl)methoxy)pyrido[4′,3′:4,5]thieno[2,3-d]pyrimidin-4-yl)-6-methyl-1,4-oxazepan-6-ol]	–	18.9 nM	–	16.7 nM	5.21 nM	–	45.2 nM	76.1 nM	113 nM
C[C@@]1(O)COCCN(c2nc(OC[C@@]34CCCN3CC(=C(F)F)C4)nc3sc4c(-c5c(C6(F)CC6)c(Cl)cc6[nH]ncc56)nccc4c23)C1 [Ex-272, (6S)-4-(8-(6-chloro-5-(1-fluorocyclopropyl)-1H-indazol-4-yl)-2-(((S)-2-(difluoromethylene)tetra-hydro-1H-pyrrolizin-7a(5H)-yl)methoxy)pyri-do[4′,3′:4,5]thi-eno[2,3-d]pyrimidin-4-yl)-6-methyl-1,4-oxazepan-6-ol]	29.4 nM	29.3 nM	62.4 nM	19.4 nM	3.18 nM	50.5 nM	–	–	–
C[C@@]1(O)COCCN(c2nc(OC[C@]3(CN4CC5(COC5)C4)CC3(F)F)nc3sc4c(-c5c(C6CC6)c(Cl)cc6[nH]ncc56)nccc4c23)C1 [Ex-213, (6S)-4-(2-(((R)-1-((2-oxa-6-azaspiro [3.3]heptan-6-yl)-methyl)-2,2-difluoro-cyclopropyl)meth-oxy)-8-(6-chloro-5-cyclopropyl-1H-indazol-4-yl)pyrido [4′,3′:4,5]thieno [2,3-d]pyrimidin-4-yl)-6-methyl-1,4-oxazepan-6-ol]	–	12.2 nM	–	11.2 nM	3.5 nM	–	42.9 nM	48.3 nM	66.4 nM
CCc1cc2[nH]ncc2c(-c2nccc3c2sc2nc(OC[C@@]45CCCN4C[C@H](F)C5)nc(N4CCOC[C@@](C)(O)C4)c23)c1C1CC1 [Ex-48, (6S)-4-(8-(5-cyclopropyl-6-ethyl-1H-indazol-4-yl)-2-(((2R,7aS)-2-fluorotetrahydro-1H-pyrrolizin-7a(5H)-yl)methoxy)pyrido[4′,3′:4,5]thi-eno[2,3-d]pyrimidin-4-yl)-6-methyl-1,4-oxazepan-6-ol]	106 nM	50.4 nM	153 nM	28.5 nM	18.2 nM	123 nM	–	–	–
C[C@@]1(O)COCCN(c2nc(OC[C@@]34CCCN3C[C@H](F)C4)nc3c(F)c4c(-c5c(C6CC6)c(Cl)cc6[nH]ncc56)nccn4c23)C1 [Ex-305, (S)-4-(9-(6-chloro-5-cyclopropyl-1H-indazol-4-yl)-10-fluoro-2-(((2R,7aS)-2-fluorotetrahydro-1H-pyrrolizin-7a(5H)-yl)methoxy)pyrazino[1′,2′:1,5]pyrrolo[3,2-d]pyrimidin-4-yl)-6-methyl-1,4-oxazepan-6-ol]	54.7 nM	37 nM	212 nM	23.8 nM	11.6 nM	93 nM	–	–	–
C[C@@]1(O)COCCN(c2nc(OC[C@]34C[C@@H](F)CN3CC3(CC3)C4)nc3sc4c(-c5c(C6CC6)c(Cl)cc6[nH]ncc56)nccc4c23)C1 [Ex-220, (6S)-4-(8-(6-chloro-5-cyclopropyl-1H-indazol-4-yl)-2-(((6R,7a′S)-6′-fluorodihydro-1H, 3H-spiro[cyclopro-pane-1,2′-pyrrol-izin]7a′(5′H)-yl)-methoxy)pyrido [4′,3′:4,5]thieno[2,3-d]pyrimidin-4-yl)-6-methyl-1,4-oxaze-pan-6-ol]	–	72.3 nM	–	70.6 nM	27.8 nM	–	130 nM	176 nM	171 nM
C[C@@]1(O)COCCN(c2nc(OC[C@@]34CCCN3C[C@H](F)C4)nc3sc4c(-c5c6c(cc7[nH]ncc57)CC5CC65)nccc4c23)C1 (stereo partly drawn) [Ex-90, (6S)-4-(2-(((2R,7aS)-2-fluorotetrahydro-1H-pyrrolizin-7a(5H)-yl)methoxy)-8-(4b,5,5a,6-tetrahydro-1H-cyclopropa[4,5]cyclopen-ta[1,2-f]indazol-4-yl)pyrido[4′,3′:4,5]thieno [2,3-d]pyrimidin-4-yl)-6-methyl-1,4-oxazepan-6-ol]	193 nM	152 nM	311 nM	85 nM	48.8 nM	174 nM	–	–	–
CO[C@@H]1CN2CCC[C@@]2(COc2nc(N3CCOC[C@@](C)(O)C3)c3c(n2)sc2c(-c4c(C5CC5)c(Cl)cc5[nH]ncc45)nccc23)C1 [Ex-228, (6S)-4-(8-(6-chloro-5-cyclopropyl-1H-indazol-4-yl)-2-(((25,7aS)-2-meth-oxytetrahydro-1H-pyrrolizin-7a(5H)-yl)methoxy)pyrido [4′,3′:4,5]thieno[2,3-d]pyrimidin-4-yl)-6-methyl-1,4-oxaze-pan-6-ol]	–	53 nM	–	38.2 nM	16 nM	–	133 nM	379 nM	180 nM
